# Reference: patent US12324802B2, “Modulators of cystic fibrosis transmembrane conductance regulator” (Vertex Pharmaceuticals Incorporated, priority 2020, dated 2025)
# Biological target: T1, CFTR (F508del/MF-HBE cells) (Homo sapiens, UniProt P13569, DEL508-508)
# T1 construct: human bronchial epithelial (HBE) cells derived from CF subjects heterozygous for F508del and a minimal function CFTR mutation; endogenous in cells; host or cells: primary human bronchial epithelial cells from CF subjects (F508del/MF genotype)
# T1 sequence (P13569 with tags, fused parts or gaps DEL508-508): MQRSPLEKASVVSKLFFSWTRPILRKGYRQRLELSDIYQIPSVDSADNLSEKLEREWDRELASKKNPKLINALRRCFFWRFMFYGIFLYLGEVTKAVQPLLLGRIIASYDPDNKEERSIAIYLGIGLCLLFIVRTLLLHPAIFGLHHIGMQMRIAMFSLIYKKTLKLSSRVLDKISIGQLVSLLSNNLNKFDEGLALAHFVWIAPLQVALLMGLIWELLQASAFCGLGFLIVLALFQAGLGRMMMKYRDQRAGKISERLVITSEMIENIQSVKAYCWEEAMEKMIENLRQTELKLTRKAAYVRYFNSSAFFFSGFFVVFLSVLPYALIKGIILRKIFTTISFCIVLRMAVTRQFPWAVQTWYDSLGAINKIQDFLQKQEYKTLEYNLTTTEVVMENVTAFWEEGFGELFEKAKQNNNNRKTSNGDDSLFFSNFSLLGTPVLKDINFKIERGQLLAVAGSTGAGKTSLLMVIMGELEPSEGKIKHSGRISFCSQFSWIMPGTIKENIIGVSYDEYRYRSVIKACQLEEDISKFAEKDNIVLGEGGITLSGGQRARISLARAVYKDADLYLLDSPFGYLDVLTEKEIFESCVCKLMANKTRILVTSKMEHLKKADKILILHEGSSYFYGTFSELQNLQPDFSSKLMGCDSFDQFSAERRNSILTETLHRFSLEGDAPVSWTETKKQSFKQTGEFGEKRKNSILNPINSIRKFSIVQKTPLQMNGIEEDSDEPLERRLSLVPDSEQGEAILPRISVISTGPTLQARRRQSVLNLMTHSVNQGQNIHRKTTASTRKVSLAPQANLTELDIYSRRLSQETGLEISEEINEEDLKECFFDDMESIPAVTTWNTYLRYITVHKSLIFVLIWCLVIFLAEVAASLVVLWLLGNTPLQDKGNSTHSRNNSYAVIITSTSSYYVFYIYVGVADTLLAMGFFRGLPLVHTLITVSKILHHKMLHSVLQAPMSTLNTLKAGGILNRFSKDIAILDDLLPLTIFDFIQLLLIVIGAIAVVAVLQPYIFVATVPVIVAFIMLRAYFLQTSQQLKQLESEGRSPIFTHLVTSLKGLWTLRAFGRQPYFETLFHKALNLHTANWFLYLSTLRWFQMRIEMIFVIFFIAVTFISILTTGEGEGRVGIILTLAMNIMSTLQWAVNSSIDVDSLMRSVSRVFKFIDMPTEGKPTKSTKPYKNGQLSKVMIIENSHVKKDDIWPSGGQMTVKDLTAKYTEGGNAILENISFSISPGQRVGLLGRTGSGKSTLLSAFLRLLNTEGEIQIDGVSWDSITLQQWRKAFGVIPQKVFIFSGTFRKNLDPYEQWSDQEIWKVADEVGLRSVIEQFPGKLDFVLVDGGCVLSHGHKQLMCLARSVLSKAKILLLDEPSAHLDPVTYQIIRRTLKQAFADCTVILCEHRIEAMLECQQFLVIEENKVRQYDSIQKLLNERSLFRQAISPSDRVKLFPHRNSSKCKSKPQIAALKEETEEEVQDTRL
# Test: Ussing chamber assay of CFTR-mediated short-circuit currents (identification of potentiator compounds)
# Format: cell-based
# Conditions: CFTR-mediated ISC in F508del/MF-HBE cells; incubated 18-24 hours at 37° C. with 10 μM (14S)-8-[3-(2-{dispiro[2.0.2.1]heptan-7-yl}ethoxy)-1H-pyrazol-1-yl]-...-2,2,4-trione, 20% human serum
# Procedure, shortened: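 F508del/minimal-function HBE cultures grown at air-liquid interface were incubated for 18–24 h at 37 °C with potentiator plus 10 μM corrector, in 20% human serum, and compounds stayed present during recording. Transepithelial ISC was recorded at 0 mV and 37 °C with 30 μM apical amiloride. CFTR current was taken as the peak response to 20 μM forskolin minus the steady state after a 20 μM inhibitor cocktail.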
row,EC50 [µM],SMILES
1,< 0.5,"CC1(C)CC2CCCc3ccc(F)c(c3)C(O)(C(F)(F)F)C3=NN=C(O3)c3nc(c(C(F)(F)F)cc3N)N2C1 (stereo not shown) [Compound 135, 23-amino-8-fluoro-17,17-dimethyl-6,21-bis(trifluoromethyl)-26-oxa-3,4,19,24-tetraazapentacyclo[18.3.1.12,5.17,11.015,19]hexacosa-1(24),2,4,7(25),8,10,20,22-octaen-6-ol]"
2,< 0.5,"CC1(C)CC2CCCc3ccc(F)c(c3)C(O)(C(F)(F)F)C3=NN=C(O3)c3nc(c(C(F)(F)F)cc3N)N2C1 (stereo not shown) [Compound 136, 23-amino-8-fluoro-17,17-dimethyl-6,21-bis(trifluoromethyl)-26-oxa-3,4,19,24-tetraazapentacyclo[18.3.1.12,5.17,11.015,19]hexacosa-1(24),2,4,7(25),8,10,20,22-octaen-6-ol]"
3,< 0.5,"Nc1cc(Br)c2nc1-c1nnc(o1)C(O)(C(F)(F)F)CCCCC[C@@H]1CCCN21 (stereo partly drawn) [Compound 144, (12R)-20-amino-18-bromo-6-(trifluoromethyl)-22-oxa-3,4,16,21-tetraazatetracyclo[15.3.1.12,5.012,16]docosa-1(21),2,4,17,19-pentaen-6-ol]"
4,< 0.5,"Nc1cc(Sc2ccc(OC(F)(F)F)cc2)c2nc1-c1nnc(o1)C(O)(C(F)(F)F)CCCCC[C@@H]1CCCN21 (stereo partly drawn) [Compound 146, (12R)-20-amino-18-{[4-(trifluoromethoxy)phenyl]sulfanyl}-6-(trifluoromethyl)-22-oxa-3,4,16,21-tetraazatetracyclo[15.3.1.12,5.012,16]docosa-1(21),2,4,17,19-pentaen-6-ol]"
5,< 0.5,"Nc1cc(C(F)(F)F)c2nc1-c1nnc(o1)C(O)(C(F)(F)F)CCCOC[C@@H]1CCCN21 (stereo partly drawn) [Compound 147, (12S)-20-amino-6,18-bis(trifluoromethyl)-10,22-dioxa-3,4,16,21-tetraazatetracyclo[15.3.1.12,5.012,16]docosa-1(21),2,4,17,19-pentaen-6-ol]"
6,> 1,"Nc1cc(C(F)(F)F)c2nc1-c1nnc(o1)[C@@](O)(C(F)(F)F)CCCCCC(C(=O)N1CCCC1)N2 (stereo partly drawn) [Compound 154, [(6R)-17-amino-6-hydroxy-6,15-bis(trifluoromethyl)-19-oxa-3,4,13,18-tetrazatricyclo[12.3.1.12,5]nonadeca-1(18),2,4,14,16-pentaen-12-yl]-pyrrolidin-1-yl-methanone]"
7,< 0.5,"CC1(C)CCCCC[C@](O)(C(F)(F)F)C2=NN=C(O2)c2nc(c(C(F)(F)F)cc2N)N1 [Compound 163, (6R)-17-amino-12,12-dimethyl-6,15-bis(trifluoromethyl)-19-oxa-3,4,13,18-tetrazatricyclo[12.3.1.12,5]nonadeca-1(18),2,4,14,16-pentaen-6-ol]"
8,> 1,"CC1(C)CCCCC[C@@](O)(C(F)(F)F)C2=NN=C(O2)c2nc(c(C(F)(F)F)cc2N)N1 [Compound 165, (6S)-17-Amino-12,12-dimethyl-6,15-bis(trifluoromethyl)-19-oxa-3,4,13,18-tetrazatricyclo[12.3.1.12,5]nonadeca-1(18),2,4,14,16-pentaen-6-ol]"
9,< 0.5,"Nc1cc(C(F)(F)F)c2nc1-c1nnc(o1)[C@@](O)(C(F)(F)F)CCCCCC(c1ccccn1)N2 (stereo partly drawn) [Compound 166, (6R)-17-amino-12-(2-pyridyl)-6,15-bis(trifluoromethyl)-19-oxa-3,4,13,18-tetrazatricyclo[12.3.1.12,5]nonadeca-1(18),2,4,14,16-pentaen-6-ol]"
10,< 0.5,"Nc1cc(C(F)(F)F)c2nc1-c1nnc(o1)[C@@](O)(C(F)(F)F)CCCCCC1(CCC1)N2 [Compound 173, (6R)-17-amino-6,15-bis(trifluoromethyl)spiro[19-oxa-3,4,13,18-tetrazatricyclo[12.3.1.12,5]nonadeca-1(18),2,4,14,16-pentaene-12,1′-cyclobutane]-6-ol]"
